Results as given in ChEMBL document CHEMBL1201862, “PubChem BioAssay data set” (2004).
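All cell lines were grown in 96-well plates and treated with compound for 48 hours. Here, GI50 denotes the concentration required for 50% inhibition of growth.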 Active and inactive are the calls of the source. Rule as the data show it: active = GI50 up to about 1.1 µM and inactive = higher. Where a SMILES comes first, the peptide text is derived from it. [ ]: non-standard residue; d: D form. Phe(4-NO2) = N[CH](Cc1ccc([N+](=O)[O-])cc1)C(=O)O

Assays:
Test in all cases: NCI-60 cell line screen, 48 h
EKVX = system: EKVX
KM12 = system: KM12
CAKI-1 = system: CAKI-1
786-0 = system: 786-0
RXF 393 = system: RXF 393
SK-MEL-5 = system: SK-MEL-5
HCT-116 = system: HCT-116
HOP-92 = system: HOP-92
SK-OV-3 = system: SK-OV-3
HT-29 = system: HT-29
OVCAR-4 = system: OVCAR-4
NCI-H522 = system: NCI-H522
OVCAR-3 = system: OVCAR-3
SNB-19 = system: SNB-19
ACHN = system: ACHN
SNB-75 = system: SNB-75
SN12C = system: SN12C
MCF7 = system: MCF7
COLO 205 = system: COLO 205

Structure (SMILES)	GI50 (EKVX)	GI50 (KM12)	GI50 (CAKI-1)	GI50 (786-0)	GI50 (RXF 393)	GI50 (SK-MEL-5)	GI50 (HCT-116)	GI50 (HOP-92)	GI50 (SK-OV-3)	GI50 (HT-29)	GI50 (OVCAR-4)	GI50 (NCI-H522)	GI50 (OVCAR-3)	GI50 (SNB-19)	GI50 (ACHN)	GI50 (SNB-75)	GI50 (SN12C)	GI50 (MCF7)	GI50 (COLO 205)
Cc1ccc(NC(=S)N/N=C(/c2ccccc2)c2ccccn2)cc1	0.0675 µM (active)	0.1 µM (active)	0.059 µM (active)	0.0284 µM (active)	0.621 µM (active)	0.0933 µM (active)	< 0.01 µM (active)	0.278 µM (active)	0.0308 µM (active)	0.0541 µM (active)	0.241 µM (active)	1.31 µM (inactive)	0.0169 µM (active)	3.27 µM (inactive)	< 0.0371 µM (active)	0.343 µM (active)	0.121 µM (active)	0.0164 µM (active)	< 0.0166 µM (active)
NC(=S)N/N=C/C1NCCC2CCCCC21 (stereo unspecified)	0.611 µM (active)	0.416 µM (active)	0.0715 µM (active)	0.138 µM (active)	2.43 µM (inactive)	0.118 µM (active)	0.281 µM (active)	0.0641 µM (active)	0.37 µM (active)	2.86 µM (inactive)	1.73 µM (inactive)	0.318 µM (active)	0.312 µM (active)	0.35 µM (active)	0.0134 µM (active)	24.2 µM (inactive)	0.167 µM (active)	0.59 µM (active)	0.373 µM (active)
COC(=O)[C@@H]1CS(=O)(=O)C(C(C)C)N1C(C)=O (stereo partly specified)	> 100 µM (inactive)	> 100 µM (inactive)	> 100 µM (inactive)	> 100 µM (inactive)	> 100 µM (inactive)	> 100 µM (inactive)	> 100 µM (inactive)	> 100 µM (inactive)	> 100 µM (inactive)	> 100 µM (inactive)	> 100 µM (inactive)	> 100 µM (inactive)	> 100 µM (inactive)	> 100 µM (inactive)	> 100 µM (inactive)	> 100 µM (inactive)	> 100 µM (inactive)	> 100 µM (inactive)	> 100 µM (inactive)
COc1ccc(/C=C/C(=O)c2ccccc2)cc1OC	14.8 µM (inactive)	3.13 µM (inactive)	15.7 µM (inactive)	4.97 µM (inactive)	14.3 µM (inactive)	16.8 µM (inactive)	6.38 µM (inactive)	18.5 µM (inactive)	14.2 µM (inactive)	5.3 µM (inactive)	16.7 µM (inactive)	6.85 µM (inactive)	11.4 µM (inactive)	11.2 µM (inactive)	15.5 µM (inactive)	14 µM (inactive)	14.6 µM (inactive)	2.52 µM (inactive)	15.9 µM (inactive)
CC(NC(=O)C(Cc1ccc([N+](=O)[O-])cc1)NC(=O)C(N)CCCCN)C(=O)NC(Cc1ccc([N+](=O)[O-])cc1)C(N)=O (stereo unspecified) (H-K[Phe(4-NO2)]A[Phe(4-NO2)]-NH2; configuration not given here)	> 71.4 µM (inactive)	23.4 µM (inactive)	47 µM (inactive)	21.9 µM (inactive)	39.2 µM (inactive)	35.8 µM (inactive)	> 45.2 µM (inactive)	28.3 µM (inactive)	> 100 µM (inactive)	20.4 µM (inactive)	> 38.6 µM (inactive)	> 30.5 µM (inactive)	17.4 µM (inactive)	> 85.3 µM (inactive)	32.8 µM (inactive)	> 37.5 µM (inactive)	24.9 µM (inactive)	> 40.7 µM (inactive)	> 52.7 µM (inactive)
CC1=NN(c2cccc(S(=O)(=O)O)c2)C2(C1)SCC(=O)N2c1nc2ccccc2s1 (stereo unspecified)	> 100 µM (inactive)	> 100 µM (inactive)	> 100 µM (inactive)	> 100 µM (inactive)	> 100 µM (inactive)	> 100 µM (inactive)	> 100 µM (inactive)	> 100 µM (inactive)	> 100 µM (inactive)	> 100 µM (inactive)	> 100 µM (inactive)	> 100 µM (inactive)	83.2 µM (inactive)	> 100 µM (inactive)	> 100 µM (inactive)	> 100 µM (inactive)	> 100 µM (inactive)	> 100 µM (inactive)	> 100 µM (inactive)
CC12CCCCC1=C(F)C(F)(F)S2 (stereo unspecified)	> 78.7 µM (inactive)	> 84.7 µM (inactive)	21.5 µM (inactive)	20.8 µM (inactive)	20.5 µM (inactive)	46.3 µM (inactive)	22.1 µM (inactive)	23.6 µM (inactive)	> 100 µM (inactive)	20.8 µM (inactive)	48.3 µM (inactive)	21.5 µM (inactive)	19.7 µM (inactive)	> 100 µM (inactive)	22.1 µM (inactive)	> 70.6 µM (inactive)	> 57.7 µM (inactive)	34.4 µM (inactive)	15.1 µM (inactive)
C[C@]12CC/C(=N\OCCN3CCCC3)C=C1CCC1C2CC[C@@]2(C)C1CC[C@]2(C)O (stereo partly specified)	6.93 µM (inactive)	5.09 µM (inactive)	7.43 µM (inactive)	4.43 µM (inactive)	19.3 µM (inactive)	14.8 µM (inactive)	5.16 µM (inactive)	11.7 µM (inactive)	18.5 µM (inactive)	1.25 µM (inactive)	16.1 µM (inactive)	3.12 µM (inactive)	8.39 µM (inactive)	14.7 µM (inactive)	11.1 µM (inactive)	2.3 µM (inactive)	7.13 µM (inactive)	5.37 µM (inactive)	3.4 µM (inactive)
COC(=O)C(Cc1ccccc1)NS(=O)(=O)c1ccc(-c2c3nc(c(-c4ccc(S(=O)(=O)NC(Cc5ccccc5)C(=O)OC)cc4)c4ccc([nH]4)c(-c4ccc(S(=O)(=O)NC(Cc5ccccc5)C(=O)OC)cc4)c4nc(c(-c5ccc(S(=O)(=O)NC(Cc6ccccc6)C(=O)OC)cc5)c5ccc2[nH]5)C=C4)C=C3)cc1 (stereo unspecified)	> 100 µM (inactive)	> 100 µM (inactive)	> 100 µM (inactive)	53.6 µM (inactive)	39.4 µM (inactive)	> 100 µM (inactive)	> 100 µM (inactive)	31.8 µM (inactive)	> 100 µM (inactive)	> 100 µM (inactive)	> 100 µM (inactive)	> 100 µM (inactive)	> 100 µM (inactive)	40.9 µM (inactive)	> 100 µM (inactive)	12.5 µM (inactive)	> 100 µM (inactive)	> 100 µM (inactive)	> 100 µM (inactive)
O=C(O)CCC1COc2ccccc2O1 (stereo unspecified)	> 10 µM (inactive)	> 10 µM (inactive)	> 10 µM (inactive)	> 10 µM (inactive)	> 10 µM (inactive)	> 10 µM (inactive)	> 10 µM (inactive)	> 10 µM (inactive)	> 10 µM (inactive)	> 10 µM (inactive)	> 10 µM (inactive)	> 10 µM (inactive)	> 10 µM (inactive)	> 10 µM (inactive)	> 10 µM (inactive)	> 10 µM (inactive)	> 10 µM (inactive)	> 10 µM (inactive)	> 10 µM (inactive)
COC(=O)c1sc(=S)sc1SCc1cccc(CSc2sc(=S)sc2C(=O)OC)c1	56 µM (inactive)	> 100 µM (inactive)	34.5 µM (inactive)	33.4 µM (inactive)	16.2 µM (inactive)	> 100 µM (inactive)	90.6 µM (inactive)	29.4 µM (inactive)	19.6 µM (inactive)	> 100 µM (inactive)	> 100 µM (inactive)	> 100 µM (inactive)	63.4 µM (inactive)	26.8 µM (inactive)	28.8 µM (inactive)	11.6 µM (inactive)	> 100 µM (inactive)	> 100 µM (inactive)	> 100 µM (inactive)
O=C1c2c(F)c(F)c(F)c(F)c2SC2=Nc3cccc4cccc(c34)N12	9.79 µM (inactive)	3.05 µM (inactive)	14.9 µM (inactive)	5.51 µM (inactive)	4.1 µM (inactive)	14.1 µM (inactive)	4.08 µM (inactive)	2.37 µM (inactive)	4.14 µM (inactive)	7.48 µM (inactive)	3.49 µM (inactive)	2.54 µM (inactive)	3.21 µM (inactive)	8.09 µM (inactive)	7.05 µM (inactive)	12.1 µM (inactive)	3.79 µM (inactive)	3.78 µM (inactive)	9.35 µM (inactive)
CSC1SCC2C(=O)N(C)C3(CC3C)C(=O)OCC(NC(=O)c3nc4ccccc4cc3O)C(=O)NC(C)C(=O)N(C)C1C(=O)N(C)C1(CC1C)C(=O)OCC(NC(=O)c1nc3ccccc3cc1O)C(=O)NC(C)C(=O)N2C (stereo unspecified)	0.1 µM (active)	< 0.0001 µM (active)	0.000871 µM (active)	< 0.0001 µM (active)	< 0.0001 µM (active)	< 0.0001 µM (active)	< 0.0001 µM (active)	< 0.0001 µM (active)	< 0.0001 µM (active)	< 0.0001 µM (active)	< 0.0001 µM (active)	< 0.01 µM (active)	< 0.0001 µM (active)	< 0.0001 µM (active)	< 0.0001 µM (active)	< 0.0001 µM (active)	< 0.0001 µM (active)	< 0.0001 µM (active)	< 0.0001 µM (active)
COc1cc2c3c(c1OC)C1(C=CC(=O)C=C1)CC3NCC2 (stereo unspecified)	> 100 µM (inactive)	80 µM (inactive)	> 100 µM (inactive)	44 µM (inactive)	89.7 µM (inactive)	> 100 µM (inactive)	> 100 µM (inactive)	> 100 µM (inactive)	> 100 µM (inactive)	> 100 µM (inactive)	> 100 µM (inactive)	71 µM (inactive)	> 100 µM (inactive)	> 100 µM (inactive)	> 100 µM (inactive)	80.5 µM (inactive)	> 100 µM (inactive)	> 100 µM (inactive)	> 100 µM (inactive)
